Patent publication US11994513B2, “Diagnostic and prognostic methods for estrogen-induced cancers” (The University of Newcastle, priority 2018, dated 2024)

Columns and labels:
Ishikawa organoids = experiment: 3D organoid formation assay: colony size and proliferation (CellTiter-Glo 3D); type: cell-based, human
Experimental: The human endometrial adenocarcinoma cell line Ishikawa (Sigma #99040201) was cultured in MEM (HyClone) medium supplemented with 5% heat-inactivated FBS (Bovogen Biologicals), 2 mmol/L L-glutamine (HyClone), and antibiotics (50 U/mL penicillin, 50 mg/L streptomycin; Gibco) in a humidified atmosphere at 37° C. containing 5% CO2. Cell line authentication was done by short tandem repeat (STR) DNA profiling method and mycoplasma contamination in cells was routinely conducted using MycoAlert™ Plus Mycoplasma detection kit (Lonza). 5,000 Ishikawa cells/well were seeded in triplicate in 100 μL medium onto 96-well tissue culture plates coated with a thin layer of reduced growth factor basement membrane extract (Cultrex® RGF BME: Trevigen) and were allowed to form organoids. After 24 hours, the organoids were subjected to desired hormonal treatments: 10 nmol/L estrogen ((β-Estradiol, Sigma #E8875) and 100 nmol/L progesterone (Medroxyprogesterone 17-acetate, Sigma #M1629). The culture medium containing desired hormone concentration was changed on every 48 hours. On day 7, colony size was measured and images were photographed using JuLI™ Stage Real-Time Cell History Recorder (NanoEnTek) in an incubator at 37° C. humidified with 5% CO2. 72 hours post-treatment, cells were incubated with CellTiter-Glo® 3D Reagent (Promega) for 30 minutes at room temperature and luminescence signal was recorded using the FLUOstar OPTIMA (BMG Labtech). Ishikawa 3D organoids were fixed in 4% paraformaldehyde (Electron Microscopy Sciences, ProSciTech) for 20 minutes and processed for immunofluorescence, as described previously (Sahoo et al, Oncotarget, 2017, 8:71400-17).

ALPPL2 mRNA expression = experiment: Quantitative real-time PCR of ALPPL2 mRNA in hormone-treated Ishikawa organoids; type: cell-based, human; settings: FIG. 2C
Experimental: (§1) 5,000 Ishikawa cells/well were seeded in triplicate in 100 μL medium onto 96-well tissue culture plates coated with a thin layer of reduced growth factor basement membrane extract (Cultrex® RGF BME: Trevigen) and were allowed to form organoids. After 24 hours, the organoids were subjected to desired hormonal treatments: 10 nmol/L estrogen ((β-Estradiol, Sigma #E8875) and 100 nmol/L progesterone (Medroxyprogesterone 17-acetate, Sigma #M1629). The culture medium containing desired hormone concentration was changed on every 48 hours. On day 7, colony size was measured and images were photographed using JuLI™ Stage Real-Time Cell History Recorder (NanoEnTek) in an incubator at 37° C. humidified with 5% CO2. 72 hours post-treatment, cells were incubated with CellTiter-Glo® 3D Reagent (Promega) for 30 minutes at room temperature and luminescence signal was recorded using the FLUOstar OPTIMA (BMG Labtech). […]
Total RNA was isolated from estrogen or progesterone treated mouse uterus and Ishikawa cells using RNeasy Mini kit (Qiagen) following manufacturer's instructions. […] Quantitative real-time PCR (Q-PCR) was performed using RT^2 SYBR Green ROX qPCR Mastermix (Qiagen) on a 7900 HT FAST Thermocycler (Applied Biosystems) through a pre-incubation step, and 40 amplification cycles (including denaturation, annealing and extension segments). […]

mice uteri = experiment: Hormone pellet treatment of ovariectomized mice: uterine histology and ALPPL2 immunohistochemistry; type: in vivo, C57BL/6 mice
ALPPL2 protein = experiment: Western blot of ALPPL2 protein in hormone-treated Ishikawa cells and organoids; type: cell-based, human; settings: Ishikawa cells and organoids treated with E2 and/or P4, FIGS. 2D and 2E
Experimental: as §1
Human endometrial cancer samples, mouse uterine tissue, and Ishikawa cells were lysed in ice-cold RIPA (radioimmunoprecipitation assay) buffer (50 mmol/L Tris-HCl pH 7.5, 150 mmol/L NaCl, 1% NP-40, 0.5% Sodium deoxycholate, 0.1% SDS) containing protease and phosphatase inhibitors (Sigma). […] The membrane was washed again in TBS-T, developed using a chemiluminescent substrate (Millipore) for detection of HRP and the protein bands were detected by chemiluminescence (Fujifilm LAS-4000). […]

Row | Compound | mitogenic action of E2 on Ishikawa organoids (size and proliferation) (Ishikawa organoids; P4 100 nmol/L with E2 10 nmol/L, FIGS. 2A and 2B) | effect on E2-induced ALPPL2 mRNA upregulation (ALPPL2 mRNA expression; P4 100 nmol/L with E2 10 nmol/L) | effect on E2-induced ALPPL2 expression in uterus (immunohistochemical analysis) (mice uteri; E2 and P4 pellets for 3 months, FIG. 3A) | ALPPL2 protein expression (western blot, total cell lysate) (ALPPL2 protein) | proliferation of Ishikawa organoids (Ishikawa organoids; E2 10 nmol/L, 3D culture, 72 hours post-treatment, FIG. 2B) | size of Ishikawa organoids (Ishikawa organoids; E2 10 nmol/L, 3D culture, day 7, FIG. 2A) | ALPPL2 mRNA expression (ALPPL2 mRNA expression; E2 treated organoids, 10 nmol/L) | ALPPL2 expression in uterus (immunohistochemical analysis) (mice uteri; E2 pellet for 3 months, FIG. 3A) | endometrial hyperplasia (histological analysis) (mice uteri; E2 pellet for 3 months, compared to E2 and P4 treated uteri, data not shown)
1 | CC(=O)[C@H]1CC[C@H]2[C@@H]3CCC4=CC(=O)CC[C@]4(C)[C@H]3CC[C@]12C [P4, progesterone] | counterbalanced | inhibited this effect | attenuated the effect of E2 |  |  |  |  |  | 
2 | β-Estradiol [E2] |  |  |  | Overexpression of ALPPL2 | increased | increased | significantly upregulated | increase in ALPPL2 expression | increased endometrial hyperplasia
